According to PubChem BioAssay (NCI):
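A five-concentration, 48-hour dose response in 96-well plates underlies each endpoint, interpolated linearly between surrounding concentrations. At the GI50, growth is halved. TGI: concentration producing complete growth inhibition.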

test system: SF-539 CNS; assay: NCI-60 cell line screen, 48 h

Structure (SMILES)	GI50 [µM]	TGI [µM]
COC(=O)c1ccc2[nH]c(O)c(C(=Nc3ccc(N(C)C(=O)CN4CCN(C)CC4)cc3)c3ccc(C)cc3)c2c1	0.307	1.18

test system: COLO 205 colon; assay: NCI-60 cell line screen, 48 h

Structure (SMILES)	GI50 [µM]	TGI [µM]
Clc1cccc(Cc2cn3cc(-c4ccccc4)nc3s2)c1Cl	> 100	> 100
O=C1/C(=C/c2ccc([N+](=O)[O-])cc2)COc2ccc(O)c(O)c21	1.47	3.69
CN(C)c1ccc(-c2cc(-c3ccc(Nc4nc(Nc5ccc(Cl)cc5)nc(Nc5ccc(Cl)cc5)n4)cc3)no2)cc1	2.89	16

test system: HOP-92 NSCLC; assay: NCI-60 cell line screen, 48 h

Structure (SMILES)	GI50 [µM]	TGI [µM]
Clc1cccc(Cc2cn3cc(-c4ccccc4)nc3s2)c1Cl	2.84	16.9
O=C1/C(=C/c2ccc([N+](=O)[O-])cc2)COc2ccc(O)c(O)c21	1.99	4.96
CN(C)c1ccc(-c2cc(-c3ccc(Nc4nc(Nc5ccc(Cl)cc5)nc(Nc5ccc(Cl)cc5)n4)cc3)no2)cc1	2.69	10.6

test system: BT-549 breast; assay: NCI-60 cell line screen, 48 h

Structure (SMILES)	GI50 [µM]	TGI [µM]
Clc1cccc(Cc2cn3cc(-c4ccccc4)nc3s2)c1Cl	88.2	> 100
O=C1/C(=C/c2ccc([N+](=O)[O-])cc2)COc2ccc(O)c(O)c21	1.44	3.19
CN(C)c1ccc(-c2cc(-c3ccc(Nc4nc(Nc5ccc(Cl)cc5)nc(Nc5ccc(Cl)cc5)n4)cc3)no2)cc1	9.07	48.9
NC(N)=N/N=C/c1c(-c2ccc(Cl)c([N+](=O)[O-])c2)nc2sc(Cl)cn12	–	3.48
COC(=O)c1ccc2[nH]c(O)c(C(=Nc3ccc(N(C)C(=O)CN4CCN(C)CC4)cc3)c3ccc(C)cc3)c2c1	1.13	2.45

test system: MDA-MB-435; assay: NCI-60 cell line screen, 48 h

Structure (SMILES)	GI50 [µM]	TGI [µM]
Clc1cccc(Cc2cn3cc(-c4ccccc4)nc3s2)c1Cl	3.59	> 100
O=C1/C(=C/c2ccc([N+](=O)[O-])cc2)COc2ccc(O)c(O)c21	1.58	3.08
CN(C)c1ccc(-c2cc(-c3ccc(Nc4nc(Nc5ccc(Cl)cc5)nc(Nc5ccc(Cl)cc5)n4)cc3)no2)cc1	3.33	32.3

test system: SK-MEL-28 melanoma; assay: NCI-60 cell line screen, 48 h

Structure (SMILES)	GI50 [µM]	TGI [µM]
Clc1cccc(Cc2cn3cc(-c4ccccc4)nc3s2)c1Cl	54.4	> 100
O=C1/C(=C/c2ccc([N+](=O)[O-])cc2)COc2ccc(O)c(O)c21	2.1	4.61
CN(C)c1ccc(-c2cc(-c3ccc(Nc4nc(Nc5ccc(Cl)cc5)nc(Nc5ccc(Cl)cc5)n4)cc3)no2)cc1	6.49	46.9

test system: SN12C renal; assay: NCI-60 cell line screen, 48 h

Structure (SMILES)	GI50 [µM]	TGI [µM]
Clc1cccc(Cc2cn3cc(-c4ccccc4)nc3s2)c1Cl	> 100	> 100
O=C1/C(=C/c2ccc([N+](=O)[O-])cc2)COc2ccc(O)c(O)c21	1.54	4.19
CN(C)c1ccc(-c2cc(-c3ccc(Nc4nc(Nc5ccc(Cl)cc5)nc(Nc5ccc(Cl)cc5)n4)cc3)no2)cc1	9.63	61
NC(N)=N/N=C/c1c(-c2ccc(Cl)c([N+](=O)[O-])c2)nc2sc(Cl)cn12	–	4.88

test system: HCT-15 colon; assay: NCI-60 cell line screen, 48 h

Structure (SMILES)	GI50 [µM]	TGI [µM]
Clc1cccc(Cc2cn3cc(-c4ccccc4)nc3s2)c1Cl	> 100	> 100
O=C1/C(=C/c2ccc([N+](=O)[O-])cc2)COc2ccc(O)c(O)c21	0.606	3.55
CN(C)c1ccc(-c2cc(-c3ccc(Nc4nc(Nc5ccc(Cl)cc5)nc(Nc5ccc(Cl)cc5)n4)cc3)no2)cc1	5.2	> 100
NC(N)=N/N=C/c1c(-c2ccc(Cl)c([N+](=O)[O-])c2)nc2sc(Cl)cn12	–	> 100
